Here are results for eleven molecules from the Kinase Knowledgebase extract (Sharma et al. 2016).

pIC50: −log10 of the molar value.

By pIC50 is commonly meant the IC50 on a negative log10 scale, so that one unit is a factor of ten. A high value points to a small IC50.

EGFR, sequence (P00533 whole entry, looked up): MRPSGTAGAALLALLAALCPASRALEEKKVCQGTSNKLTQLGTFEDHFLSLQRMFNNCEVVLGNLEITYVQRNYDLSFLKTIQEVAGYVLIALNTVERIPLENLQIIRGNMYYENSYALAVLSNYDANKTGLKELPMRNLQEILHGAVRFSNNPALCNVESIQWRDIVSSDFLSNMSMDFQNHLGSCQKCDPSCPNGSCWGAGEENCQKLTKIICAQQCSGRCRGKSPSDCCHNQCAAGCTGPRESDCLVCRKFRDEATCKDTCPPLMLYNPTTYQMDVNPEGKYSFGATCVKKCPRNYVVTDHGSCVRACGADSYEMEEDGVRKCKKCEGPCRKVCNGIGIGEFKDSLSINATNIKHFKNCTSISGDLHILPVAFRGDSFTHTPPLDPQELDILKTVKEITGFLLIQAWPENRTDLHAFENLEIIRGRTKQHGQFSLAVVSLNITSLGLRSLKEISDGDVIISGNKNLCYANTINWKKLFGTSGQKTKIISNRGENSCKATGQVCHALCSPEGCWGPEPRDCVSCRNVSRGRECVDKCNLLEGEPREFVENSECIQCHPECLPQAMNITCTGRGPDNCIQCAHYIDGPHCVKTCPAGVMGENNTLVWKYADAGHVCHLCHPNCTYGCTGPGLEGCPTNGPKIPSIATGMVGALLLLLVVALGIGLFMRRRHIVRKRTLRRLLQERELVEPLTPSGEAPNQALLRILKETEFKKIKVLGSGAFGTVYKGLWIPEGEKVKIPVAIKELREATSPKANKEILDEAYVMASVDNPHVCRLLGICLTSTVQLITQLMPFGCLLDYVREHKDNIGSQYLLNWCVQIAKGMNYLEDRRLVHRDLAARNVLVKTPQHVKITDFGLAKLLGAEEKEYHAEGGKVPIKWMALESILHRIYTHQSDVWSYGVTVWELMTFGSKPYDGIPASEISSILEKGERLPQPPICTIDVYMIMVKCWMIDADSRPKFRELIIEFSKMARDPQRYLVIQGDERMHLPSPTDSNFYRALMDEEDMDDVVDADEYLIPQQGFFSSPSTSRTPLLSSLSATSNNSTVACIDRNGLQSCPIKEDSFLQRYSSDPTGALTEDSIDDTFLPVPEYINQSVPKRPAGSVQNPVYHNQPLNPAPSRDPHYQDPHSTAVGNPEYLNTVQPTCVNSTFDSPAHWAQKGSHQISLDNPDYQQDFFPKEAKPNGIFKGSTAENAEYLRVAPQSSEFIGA
EGFR (human), sequence (P00533 whole entry, looked up): as above

One experiment addresses EGFR (UniProt P00533).
Settings: not given
Regarding `O=C(O)CNCc1ccc2ncnc(Nc3ccc4c(cnn4Cc4ccccc4)c3)c2c1`, the pIC50 is greater than 7.00.

`CS(=O)(=O)CCNCc1ccc2ncnc(Nc3ccc4c(cnn4Cc4ccccc4)c3)c2c1` had a pIC50 greater than 7.00.

With `NC(=O)[C@@H]1CCCN1Cc1ccc2ncnc(Nc3ccc4c(cnn4Cc4ccccc4)c3)c2c1`, the negative-log IC50 (pIC50) was greater than 7.00.

Turning to `CC(C)(C)OC(=O)[C@H]1CCCN1Cc1ccc2ncnc(Nc3ccc4c(cnn4Cc4ccccc4)c3)c2c1`, the pIC50 was 6.00 to 7.00.

`NC(=O)CNCc1ccc2ncnc(Nc3ccc4c(cnn4Cc4ccccc4)c3)c2c1` showed a negative logarithm of the IC50 (pIC50) greater than 7.00.

The molecule `CN(CC(N)=O)Cc1ccc2ncnc(Nc3ccc4c(cnn4Cc4ccccc4)c3)c2c1` showed a pIC50 greater than 7.00.

Another experiment concerns the target EGFR (human) (UniProt P00533). To be noted: hn5.
Molecule `CS(=O)(=O)CCNCCCCOc1ccc2ncnc(Nc3ccc(S(=O)(=O)c4ccccc4)cc3)c2c1` showed a pIC50 greater than 5.30.

The molecule `CN(CCCOc1ccc2ncnc(Nc3ccc(OCc4ccccc4)cc3)c2c1)CCS(C)(=O)=O` had a pIC50 greater than 5.30.

As to `CS(=O)(=O)CCNCCCCOc1ccc2ncnc(Nc3ccc(OCc4cccc(F)c4)c(Cl)c3)c2c1`, the pIC50 is 4.60 to 5.30.

`CS(=O)(=O)CCNCCCOc1ccc2ncnc(Nc3ccc(OCc4ccccc4)cc3)c2c1` showed a pIC50 of 4.60 to 5.30.

The molecule `CS(=O)(=O)CCNCCCCOc1ccc2ncnc(Nc3ccc(OCc4ccccc4)cc3)c2c1` gave a pIC50 greater than 5.30.
